Molecules are shown by their SMILES.

What all share (assay): biochemical
Common to all, as to set-up: KINOMEscan competition binding, DNA-tagged kinase against immobilised ligand, qPCR read-out
Background: Real-time PCR tracks product formation cycle by cycle.

One assay addresses NEK7 (Homo sapiens, UniProt Q8TDX7). The settings on record: read-out: Percent Control.
Another assay concerns the target CLK4 (Homo sapiens, UniProt Q9HAZ1). The settings on record: read-out: Percent Control.
For assay [1], the target named is T1, RSK2(Kin.Dom.1-N-terminal) (Homo sapiens, UniProt P51812).
T1 construct: gene RPS6KA3; Kin.Dom.1 N-terminal
Particulars: read-out: Percent Control.

A further assay concerns the target FGFR4 (Homo sapiens, UniProt P22455). The settings on record: read-out: Percent Control.
The target in the next assay is STK36 (Homo sapiens, UniProt Q9NRP7). The settings on record: read-out: Percent Control.
A further assay has as its target CDC42BPG (Homo sapiens, UniProt Q6DT37). The settings on record: read-out: Percent Control.
A further assay deals with PHKG2 (Homo sapiens, UniProt P15735). Particulars: read-out: Percent Control.
Another assay deals with ACVR2A (Homo sapiens, UniProt P27037). Particulars: read-out: Percent Control.
The next assay concerns the target MAP2K5 (Homo sapiens, UniProt Q13163). The settings on record: read-out: Percent Control.
The next assay has as its target FGFR3 (Homo sapiens, UniProt P22607). The settings on record: read-out: Percent Control.
The target of the next assay is KIT (Homo sapiens, UniProt P10721). The settings on record: read-out: Percent Control.
In the next assay the target is PKMYT1 (Homo sapiens, UniProt Q99640). Particulars: read-out: Percent Control.
For the next assay, the target named is YES1 (Homo sapiens, UniProt P07947). The settings on record: read-out: Percent Control.
A further assay deals with MAP4K3 (Homo sapiens, UniProt Q8IVH8). The settings on record: read-out: Percent Control.
Another assay deals with GSK3B (Homo sapiens, UniProt P49841). Particulars: read-out: Percent Control.
Another assay concerns the target CLK2 (Homo sapiens, UniProt P49760). The settings on record: read-out: Percent Control.
The target of a further assay is NEK3 (Homo sapiens, UniProt P51956). Particulars: read-out: Percent Control.
Another assay has as its target DYRK2 (Homo sapiens, UniProt Q92630). The procedure, abridged: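 Competition binding format: the test compound competes with an immobilised ligand for DNA-tagged kinase, and the kinase remaining bound to the ligand is quantified by RT-qPCR. An 11-point 3-fold serial dilution was prepared in 100% DMSO at 100× final concentration, then diluted to 1× in the assay.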
For the next assay, the target named is EPHA4 (Homo sapiens, UniProt P54764). The settings on record: read-out: Percent Control.
For the next assay, the target named is PAK3 (Homo sapiens, UniProt O75914). The settings on record: read-out: Percent Control.

DYRK2, sequence (Q92630 whole entry): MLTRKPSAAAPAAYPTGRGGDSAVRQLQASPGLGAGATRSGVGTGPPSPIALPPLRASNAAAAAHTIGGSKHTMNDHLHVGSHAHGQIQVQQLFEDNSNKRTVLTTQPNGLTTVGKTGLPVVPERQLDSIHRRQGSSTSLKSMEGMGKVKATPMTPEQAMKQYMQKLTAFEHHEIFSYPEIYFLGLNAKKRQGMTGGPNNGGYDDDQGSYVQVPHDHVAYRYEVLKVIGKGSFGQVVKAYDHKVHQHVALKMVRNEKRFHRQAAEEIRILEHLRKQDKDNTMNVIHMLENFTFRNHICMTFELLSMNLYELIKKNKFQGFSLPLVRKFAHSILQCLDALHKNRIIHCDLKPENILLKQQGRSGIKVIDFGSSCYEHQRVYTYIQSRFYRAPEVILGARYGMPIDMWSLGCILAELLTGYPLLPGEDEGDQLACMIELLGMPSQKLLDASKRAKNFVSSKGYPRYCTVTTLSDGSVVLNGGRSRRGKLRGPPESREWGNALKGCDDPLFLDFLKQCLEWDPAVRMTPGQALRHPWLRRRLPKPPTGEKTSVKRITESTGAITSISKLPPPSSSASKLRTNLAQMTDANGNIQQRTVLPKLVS
KIT, sequence (P10721 whole entry): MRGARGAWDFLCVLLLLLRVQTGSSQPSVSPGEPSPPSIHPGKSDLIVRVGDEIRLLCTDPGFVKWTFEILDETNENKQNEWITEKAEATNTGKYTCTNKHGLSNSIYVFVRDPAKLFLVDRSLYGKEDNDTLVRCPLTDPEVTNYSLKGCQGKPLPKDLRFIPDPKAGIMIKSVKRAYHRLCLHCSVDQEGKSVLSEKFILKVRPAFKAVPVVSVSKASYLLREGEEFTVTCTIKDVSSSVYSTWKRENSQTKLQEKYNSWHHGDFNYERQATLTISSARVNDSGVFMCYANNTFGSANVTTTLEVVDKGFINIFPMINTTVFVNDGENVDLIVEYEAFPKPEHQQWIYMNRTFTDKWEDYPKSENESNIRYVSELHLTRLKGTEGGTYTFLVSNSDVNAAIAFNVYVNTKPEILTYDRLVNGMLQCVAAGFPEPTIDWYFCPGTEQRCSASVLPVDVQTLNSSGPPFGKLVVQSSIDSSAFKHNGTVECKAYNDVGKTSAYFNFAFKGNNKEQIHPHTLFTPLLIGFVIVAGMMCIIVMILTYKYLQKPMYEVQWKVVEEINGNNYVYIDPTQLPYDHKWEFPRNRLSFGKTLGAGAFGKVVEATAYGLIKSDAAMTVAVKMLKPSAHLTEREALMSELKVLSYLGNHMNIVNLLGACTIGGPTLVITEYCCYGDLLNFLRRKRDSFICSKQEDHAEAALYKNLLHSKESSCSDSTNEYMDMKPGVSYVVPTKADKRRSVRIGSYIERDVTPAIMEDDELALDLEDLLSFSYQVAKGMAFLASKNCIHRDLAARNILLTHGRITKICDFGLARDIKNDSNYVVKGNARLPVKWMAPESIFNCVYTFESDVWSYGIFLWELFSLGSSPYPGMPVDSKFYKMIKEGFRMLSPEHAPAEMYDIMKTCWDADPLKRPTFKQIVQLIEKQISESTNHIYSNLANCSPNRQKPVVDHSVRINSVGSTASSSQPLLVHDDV
NEK3, sequence (P51956 whole entry): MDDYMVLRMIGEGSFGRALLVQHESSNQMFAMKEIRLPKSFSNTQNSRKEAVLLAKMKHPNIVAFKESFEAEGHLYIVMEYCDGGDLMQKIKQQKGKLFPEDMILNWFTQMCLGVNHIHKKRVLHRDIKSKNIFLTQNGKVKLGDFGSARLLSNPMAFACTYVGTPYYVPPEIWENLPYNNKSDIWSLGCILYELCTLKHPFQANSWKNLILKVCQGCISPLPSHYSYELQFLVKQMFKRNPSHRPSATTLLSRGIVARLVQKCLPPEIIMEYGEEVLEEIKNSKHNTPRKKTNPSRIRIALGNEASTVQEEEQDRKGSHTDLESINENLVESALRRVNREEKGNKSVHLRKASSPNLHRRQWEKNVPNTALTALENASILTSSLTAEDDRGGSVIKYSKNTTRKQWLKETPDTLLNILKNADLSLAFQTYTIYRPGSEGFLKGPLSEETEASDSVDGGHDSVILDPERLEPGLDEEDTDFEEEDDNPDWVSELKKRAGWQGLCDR
GSK3B, sequence (P49841 whole entry): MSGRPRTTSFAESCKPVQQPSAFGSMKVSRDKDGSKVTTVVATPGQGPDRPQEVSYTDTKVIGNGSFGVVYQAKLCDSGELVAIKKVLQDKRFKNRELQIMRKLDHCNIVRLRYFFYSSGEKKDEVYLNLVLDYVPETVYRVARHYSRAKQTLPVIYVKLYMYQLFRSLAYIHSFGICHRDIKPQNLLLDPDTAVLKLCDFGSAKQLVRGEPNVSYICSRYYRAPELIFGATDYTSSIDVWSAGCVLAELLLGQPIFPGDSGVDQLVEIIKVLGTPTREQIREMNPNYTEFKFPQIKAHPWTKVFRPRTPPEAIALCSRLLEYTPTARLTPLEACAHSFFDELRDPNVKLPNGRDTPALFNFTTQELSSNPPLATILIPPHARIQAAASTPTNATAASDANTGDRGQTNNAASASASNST
CDC42BPG, sequence (Q6DT37 whole entry): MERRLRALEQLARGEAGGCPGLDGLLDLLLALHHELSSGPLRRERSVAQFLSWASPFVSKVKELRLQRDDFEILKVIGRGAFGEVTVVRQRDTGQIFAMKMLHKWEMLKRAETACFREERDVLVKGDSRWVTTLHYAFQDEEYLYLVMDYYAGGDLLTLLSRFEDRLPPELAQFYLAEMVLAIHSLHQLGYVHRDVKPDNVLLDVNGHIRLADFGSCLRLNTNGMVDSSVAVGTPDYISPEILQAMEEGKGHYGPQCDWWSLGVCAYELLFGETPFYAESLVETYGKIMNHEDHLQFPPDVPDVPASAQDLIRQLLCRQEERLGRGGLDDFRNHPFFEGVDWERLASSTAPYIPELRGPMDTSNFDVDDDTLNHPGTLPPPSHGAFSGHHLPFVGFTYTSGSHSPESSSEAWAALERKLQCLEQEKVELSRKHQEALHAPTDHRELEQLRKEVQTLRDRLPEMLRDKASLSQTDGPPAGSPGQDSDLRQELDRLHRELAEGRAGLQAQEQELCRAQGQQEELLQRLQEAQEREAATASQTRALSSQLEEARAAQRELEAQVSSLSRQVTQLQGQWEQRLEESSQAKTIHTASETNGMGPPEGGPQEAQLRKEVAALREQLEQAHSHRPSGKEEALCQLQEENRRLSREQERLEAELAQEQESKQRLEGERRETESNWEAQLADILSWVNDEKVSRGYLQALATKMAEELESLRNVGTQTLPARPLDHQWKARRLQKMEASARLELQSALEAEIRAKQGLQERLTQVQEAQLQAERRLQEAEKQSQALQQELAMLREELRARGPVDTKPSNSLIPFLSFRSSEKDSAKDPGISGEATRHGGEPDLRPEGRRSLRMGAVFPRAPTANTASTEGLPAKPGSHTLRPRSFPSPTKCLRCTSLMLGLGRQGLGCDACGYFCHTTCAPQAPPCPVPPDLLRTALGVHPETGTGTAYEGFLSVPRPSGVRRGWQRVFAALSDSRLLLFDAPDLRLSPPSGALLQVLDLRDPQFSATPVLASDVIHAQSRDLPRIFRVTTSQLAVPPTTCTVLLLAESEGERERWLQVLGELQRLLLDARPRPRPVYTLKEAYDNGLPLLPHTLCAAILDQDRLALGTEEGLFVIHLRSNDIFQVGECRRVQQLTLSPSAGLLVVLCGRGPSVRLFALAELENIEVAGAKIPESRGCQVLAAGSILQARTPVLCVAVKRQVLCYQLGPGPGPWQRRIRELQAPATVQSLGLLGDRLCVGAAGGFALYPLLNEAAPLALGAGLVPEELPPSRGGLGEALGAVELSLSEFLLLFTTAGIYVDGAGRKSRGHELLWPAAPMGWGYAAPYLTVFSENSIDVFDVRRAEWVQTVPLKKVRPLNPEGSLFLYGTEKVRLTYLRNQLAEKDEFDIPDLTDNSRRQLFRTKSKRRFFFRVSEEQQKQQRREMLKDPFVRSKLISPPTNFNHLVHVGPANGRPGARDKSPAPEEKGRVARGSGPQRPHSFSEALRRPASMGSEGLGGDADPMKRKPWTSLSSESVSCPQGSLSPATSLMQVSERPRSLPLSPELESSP
FGFR3, sequence (P22607 whole entry): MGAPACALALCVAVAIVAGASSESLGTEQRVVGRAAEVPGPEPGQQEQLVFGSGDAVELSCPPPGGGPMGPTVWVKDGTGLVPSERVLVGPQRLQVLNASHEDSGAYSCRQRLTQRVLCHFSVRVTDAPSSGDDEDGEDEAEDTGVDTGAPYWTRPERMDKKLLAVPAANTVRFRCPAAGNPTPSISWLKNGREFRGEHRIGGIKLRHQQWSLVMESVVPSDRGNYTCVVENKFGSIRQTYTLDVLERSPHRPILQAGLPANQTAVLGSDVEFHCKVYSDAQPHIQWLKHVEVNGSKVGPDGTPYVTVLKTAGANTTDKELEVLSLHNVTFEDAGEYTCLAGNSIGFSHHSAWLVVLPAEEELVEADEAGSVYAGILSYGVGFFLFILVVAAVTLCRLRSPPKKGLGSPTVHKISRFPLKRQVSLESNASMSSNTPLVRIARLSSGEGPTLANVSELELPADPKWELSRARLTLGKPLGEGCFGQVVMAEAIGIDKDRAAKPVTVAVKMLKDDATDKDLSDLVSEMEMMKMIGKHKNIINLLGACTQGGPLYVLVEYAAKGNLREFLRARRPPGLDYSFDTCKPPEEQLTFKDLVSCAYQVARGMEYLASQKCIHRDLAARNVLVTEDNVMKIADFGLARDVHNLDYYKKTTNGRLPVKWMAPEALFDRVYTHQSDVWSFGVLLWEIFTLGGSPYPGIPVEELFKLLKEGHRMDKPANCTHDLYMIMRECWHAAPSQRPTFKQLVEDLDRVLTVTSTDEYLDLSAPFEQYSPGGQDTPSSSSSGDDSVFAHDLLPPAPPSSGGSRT

Usually Kd stands for a measure of binding affinity in units of concentration. Turning to `Oc1ccc(C2=Cc3ccc(O)cc3OC2)cc1` [compound 1, idronoxil], the remaining binding at 10 µM came to 99% at NEK7; 36% at CLK4; 57% in assay [1]; 95% at FGFR4; 78% at STK36; 93% at CDC42BPG. Further, the remaining binding at 10 µM on PHKG2 is 46%; on ACVR2A, 66%; on MAP2K5, 62%; on FGFR3 it was 80%; on KIT, 19%; at PKMYT1 it was 78%. Further, the remaining binding at 10 µM on YES1 was 68%; on MAP4K3, 92%; at GSK3B it was 92%; at CLK2, 69%; on NEK3, 80%; at DYRK2 (read-out: Percent Control) it was 11%. For the same molecule, the remaining binding at 10 µM at EPHA4 turned out to be 84%; on PAK3, 100%. For the same molecule, the Kd on DYRK2 amounted to 2700 nM.

For the origin of these results see PMC10507085, “Pharmacological inhibition of TBK1/IKKε blunts immunopathology in a murine model of SARS-CoV-2 infection” (Nature Communications, 2023).
